Assay results published in ChEMBL document CHEMBL1833831, “In vivo anti-inflammatory and antioxidant properties of ellagitannin metabolite urolithin A” (Bioorg Med Chem Lett, 2011).
Activity calls are given as the source filed them. The calls are words filed in the database; no cut-off is given here.

Tests used:
[1] = Drug level in rat plasma at 5 mg after 6 hrs; format: ADME, cell-free
[2] = system: Mus musculus; assay: Antiinflammatory activity against carrageenan-induced paw edema in ICR mouse at 300 mg/kg, po administered 1 hr before carrageenan challenge measured after 3 hrs by plethysmometer relative to control; format: functional
[3] = system: Mus musculus; assay: Antiinflammatory activity against carrageenan-induced paw edema in ICR mouse at 300 mg/kg, po administered 1 hr before carrageenan challenge measured after 6 hrs by plethysmometer relative to control; format: functional
[4] = system: Mus musculus; assay: Antiinflammatory activity against carrageenan-induced paw edema in ICR mouse at 300 mg/kg, po administered 1 hr before carrageenan challenge measured after 24 hrs by plethysmometer relative to control; format: functional
[5] = Drug level in human plasma after 6 hrs; format: ADME, cell-free
[6] = system: Plasma; assay: Drug level in ICR mouse plasma assessed as free compound level after 6 hrs in presence of beta-glucuronidase by HPLC-ESI-MS/MS analysis relative to total compound level; format: ADME, cell-free
[7] = system: Mus musculus; assay: Antioxidant activity against AAPH-induced lipid peroxidation in ICR mouse assessed as decrease in ORAC score in plasma at 300 mg/kg, po after 6 hr relative to control; format: functional; parameters: scale not given: the % may be the effect or the level left
[8] = system: Plasma; assay: Drug level in ICR mouse plasma assessed as free compound level after 1 hr in presence of beta-glucuronidase by HPLC-ESI-MS/MS analysis relative to total compound level; format: ADME, cell-free
[9] = system: Plasma; assay: Drug level in ICR mouse plasma assessed as free compound level after 6 hrs in presence of beta-glucuronidase by HPLC-ESI-MS/MS analysis; format: ADME, cell-free
[10] = system: Mus musculus; assay: Antioxidant activity against AAPH-induced lipid peroxidation in ICR mouse assessed as increase in ORAC score in plasma at 300 mg/kg, po after 1 hr relative to control; format: functional
[11] = Drug level in human plasma after 0.5 hrs; format: ADME, cell-free
[12] = system: Plasma; assay: Drug level in ICR mouse plasma assessed as free compound level after 1 hr in presence of beta-glucuronidase by HPLC-ESI-MS/MS analysis; format: ADME, cell-free
[13] = system: Mus musculus; assay: Antiinflammatory activity against carrageenan-induced paw edema in ICR mouse at 300 mg/kg, po administered 6 hr before carrageenan challenge measured after 3 to 24 hrs by plethysmometer; format: functional, organism-based; parameters: dose 300 mg/kg

Compound | concentration at 6 h [1] | Activity [2] | Activity [3] | Activity [4] | concentration at 6 h [5] | Cp(f) [6] | Activity [7] | Cp(f) [8] | Cp(f) [9] | Activity [10] | concentration at 0.5 h [11] | Cp(f) [12] | Activity [13]
O=C1O[C@H]2[C@@H]3OC(=O)c4cc(O)c(O)c(O)c4-c4c(cc(O)c(O)c4O)C(=O)OC[C@H]2O[C@@H](OC(=O)c2cc(O)c(O)c(O)c2)[C@@H]3OC(=O)c2cc(O)c(O)c3c2[C@@H]2C1=CC(=O)[C@](O)(O3)C2(O)O [GERANIIN] | 450 nM | – | – | – | – | – | – | – | – | – | – | – | –
O=c1oc2cc(O)ccc2c2ccc(O)cc12 | – | 35% | 26% | 34% | 110 nM | 65.7% | 118% | 77.2% | 830 nM | 142% | 40 nM | 2850 nM | inactive
